Data taken from patent publication US20180125921A1, “USE OF QBP1 PEPTIDE FOR THE INHIBITION OF MEMORY CONSOLIDATION” (CONSEJO SUPERIOR DE INVESTIGACIONES CIENTÍFICAS, priority 2015, published 2018).
Residues, ends and D or L forms follow the SMILES beside them.

Tests used:
Orb2A PLD [1] = experiment: CR binding assay of Orb2A PLD amyloid; conditions: protein 10 μM, peptide 50 μM, aged 7 days at 37° C.
Protocol: (§1) Buffers, time and storage conditions, and protein/peptide concentrations used in the aforementioned techniques were as follows: • AFM-SMFS: Experiments were performed using 2-3 μM polyproteins in 10 mM Tris-HCl pH 7.5 at room temperature with proteins incubated at 4° C. between sessions and NTA-Ni2+ functionalized coverslips. For experiments in the presence of the peptides QBP1 and SCR, 20 μM of the peptide were used dissolved in DMSO, and the samples were incubated overnight with the peptide at 4° C. before the measurement. • CD: For far-UV CD spectra it was used a protein concentration of 2-5 μM in 5 mM NaH2PO4, with 0.02% NaN3, pH 6.0. […] The secondary structure content of each protein and its evolution during incubation were estimated by spectra deconvolution using the CDNN analysis program (Bohm, G., et al., Quantitative analysis of protein far UV circular dichroism spectra by neural networks, Protein Eng (1992) 5 (3): 191-5). For thermal stability measurements, the ellipticity changes induced by increasing the temperature (at a constant heating rate of 60° C./h) were measured at 222 nm in 5 mM NaH2PO4 pH 6.0 using a protein concentration of 20 μM. • Turbidimetry: Protein samples used were at 10 μM in PBS+0.02% NaN3, pH 7.0 for all the kinetic experiments. […]

full-length Orb2A = full-length Orb2A (Drosophila melanogaster, UniProt Q9VSR3); experiment: Isothermal titration calorimetry (ITC) of peptide interaction with Orb2A; conditions: 25° C., PBS pH 7.4, Orb2A injected into excess peptide; no quantitative analysis
Protocol: Proteins were equilibrated in PBS, pH 7.4, by gel-filtration chromatography and the equilibration buffer was used to prepare the peptide solutions. Protein/peptide binding was tested by successive injections of protein sample (10 to 25 μl each) into the reaction cell loaded with peptide at high final [peptide]/[protein] molar ratios. The apparent heat of reaction for each injection was obtained by integration of the peak area. The heats developed on protein or peptide dilutions were determined in separate runs loading the sample cell or the injection syringe with buffer, respectively, in the conditions used for the binding experiments. […] Protein (Orb2A, 185 μM) and ligand (QBP1 and SCR, 300 μM and 51 μM, respectively) concentrations in the loading solutions were measured spectrophotometrically using their respective extinction coefficients. • Drosophila strains.

Orb2A PLD [2] = experiment: TEM imaging of Orb2A PLD oligomers and fibers; conditions: protein 10 μM, peptide 50 μM, 7 days at 37° C.
Protocol: as §1

Drosophila melanogaster = conditions: for short-term memory (courtship suppression immediately after training) / long-term memory (courtship suppression after 24 hours): Elav-Gal4 driven expression; for short-term memory (courtship suppression immediately after training): 5 min after training; for long-term memory (courtship suppression after 24 hours): 24 h after training; for effect on fly development / normal courtship behaviour: expression in the nervous system; for normal courtship behaviour: untrained flies
Orb2A PLD [3] = experiment: Far-UV CD spectroscopy of Orb2A PLD over time; conditions: peptide five fold molar excess, 37° C.
Protocol: as §1

Orb2A PLD [4] = experiment: AFM-SMFS conformational polymorphism of Orb2A PLD; conditions: 20 μM peptide
Protocol: Buffers, time and storage conditions, and protein/peptide concentrations used in the aforementioned techniques were as follows: • AFM-SMFS: Experiments were performed using 2-3 μM polyproteins in 10 mM Tris-HCl pH 7.5 at room temperature with proteins incubated at 4° C. between sessions and NTA-Ni2+ functionalized coverslips. For experiments in the presence of the peptides QBP1 and SCR, 20 μM of the peptide were used dissolved in DMSO, and the samples were incubated overnight with the peptide at 4° C. before the measurement. • CD: For far-UV CD spectra it was used a protein concentration of 2-5 μM in 5 mM NaH2PO4, with 0.02% NaN3, pH 6.0. The QBP1 or SCR (when used) was five fold molar excess relative to proteins (final concentrations 10 to 25 μM with the final concentration (v/v) of DMSO below 0.01%). After recording the first protein spectrum (hour 0), the protein was incubated at 37° C. without stirring and additional spectra were collected at the indicated times. The secondary structure content of each protein and its evolution during incubation were estimated by spectra deconvolution using the CDNN analysis program (Bohm, G., et al., Quantitative analysis of protein far UV circular dichroism spectra by neural networks, Protein Eng (1992) 5 (3): 191-5). For thermal stability measurements, the ellipticity changes induced by increasing the temperature (at a constant heating rate of 60° C./h) were measured at 222 nm in 5 mM NaH2PO4 pH 6.0 using a protein concentration of 20 μM. • Turbidimetry: Protein samples used were at 10 μM in PBS+0.02% NaN3, pH 7.0 for all the kinetic experiments. Samples were incubated at 37° C. without stirring. SCR and QBP1 peptides were used at 50 μM. • CR binding assay: Samples were aged for 7 days at 37° C. with 0.02% NaN3 and no stirring prior to performing the measurements. The protein samples (10 μM) were dialyzed in PBS pH 7.0 for the experiments. SCR and QBP1 peptides were used at 50 μM. • TEM imaging: Protein samples (10 μM) were dialyzed in PBS pH 7.0 for all the TEM measurements. Images were taken after 7 days of incubation at 37° C. in the presence of 0.02% NaN3 without stirring.

Orb2A PLD [5] = experiment: Turbidimetry of Orb2A PLD amyloidogenesis; conditions: protein 10 μM, peptide 50 μM, 37° C., turbidity at 405 nm
Protocol: as §1

polyQ tracks = conditions: administered orally; cited from earlier work
Sup35 = molecular target: T1, Sup35 (Saccharomyces cerevisiae, UniProt P05453); conditions: cited from earlier work
T1 sequence (P05453 1-253 limits assumed): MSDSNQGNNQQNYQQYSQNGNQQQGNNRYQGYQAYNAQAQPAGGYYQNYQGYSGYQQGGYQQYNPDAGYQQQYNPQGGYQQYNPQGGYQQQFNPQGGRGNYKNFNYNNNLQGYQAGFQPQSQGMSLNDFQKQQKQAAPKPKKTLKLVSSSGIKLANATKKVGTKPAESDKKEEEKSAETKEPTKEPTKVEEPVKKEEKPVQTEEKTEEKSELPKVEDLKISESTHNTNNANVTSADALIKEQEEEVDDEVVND

-synuclein = -synuclein (Homo sapiens, UniProt P37840); conditions: cited from earlier work
[6] = tested on: monomeric expanded polyQ proteins; conditions: cited from earlier work
Tau = Tau (Homo sapiens, UniProt P10636); conditions: personal communication; cited from earlier work
Chain of Tau (P10636 whole entry): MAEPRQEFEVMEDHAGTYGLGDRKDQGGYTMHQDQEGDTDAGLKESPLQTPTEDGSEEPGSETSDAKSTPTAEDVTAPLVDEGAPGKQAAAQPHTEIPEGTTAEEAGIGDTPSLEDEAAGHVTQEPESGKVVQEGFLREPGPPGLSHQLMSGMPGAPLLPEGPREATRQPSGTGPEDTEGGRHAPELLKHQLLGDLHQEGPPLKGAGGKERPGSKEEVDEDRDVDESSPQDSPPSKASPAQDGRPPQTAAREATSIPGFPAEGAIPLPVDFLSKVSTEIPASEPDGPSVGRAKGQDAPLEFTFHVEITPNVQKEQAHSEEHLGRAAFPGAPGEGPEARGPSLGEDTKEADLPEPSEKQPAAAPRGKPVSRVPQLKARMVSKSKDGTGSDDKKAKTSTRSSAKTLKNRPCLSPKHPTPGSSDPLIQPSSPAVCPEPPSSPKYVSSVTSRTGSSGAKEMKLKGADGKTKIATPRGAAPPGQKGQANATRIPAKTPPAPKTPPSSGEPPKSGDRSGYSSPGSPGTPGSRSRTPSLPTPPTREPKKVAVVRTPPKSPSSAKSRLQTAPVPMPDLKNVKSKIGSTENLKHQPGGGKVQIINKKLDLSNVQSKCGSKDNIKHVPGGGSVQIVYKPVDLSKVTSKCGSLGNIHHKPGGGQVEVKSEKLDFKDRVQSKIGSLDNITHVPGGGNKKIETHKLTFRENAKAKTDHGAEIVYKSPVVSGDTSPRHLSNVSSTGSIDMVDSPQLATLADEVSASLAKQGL

Chain of full-length Orb2A (Q9VSR3 1-551 isoform Q9VSR3-2): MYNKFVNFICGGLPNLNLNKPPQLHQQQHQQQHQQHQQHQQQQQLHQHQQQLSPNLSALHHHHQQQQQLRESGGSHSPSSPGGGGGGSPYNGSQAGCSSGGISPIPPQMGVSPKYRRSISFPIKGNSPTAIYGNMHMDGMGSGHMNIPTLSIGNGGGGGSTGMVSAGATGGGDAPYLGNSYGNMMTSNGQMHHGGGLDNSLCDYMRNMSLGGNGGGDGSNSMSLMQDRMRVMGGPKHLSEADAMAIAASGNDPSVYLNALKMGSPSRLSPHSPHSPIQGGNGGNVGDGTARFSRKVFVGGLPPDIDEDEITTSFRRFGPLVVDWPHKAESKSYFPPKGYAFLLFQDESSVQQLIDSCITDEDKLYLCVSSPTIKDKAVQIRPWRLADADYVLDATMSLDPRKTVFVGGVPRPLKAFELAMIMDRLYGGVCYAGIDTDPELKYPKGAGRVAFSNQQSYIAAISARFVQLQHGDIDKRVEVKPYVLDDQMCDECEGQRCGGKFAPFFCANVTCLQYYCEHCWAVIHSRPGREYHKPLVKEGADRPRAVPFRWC

| Molecule | Orb2A PLD amyloidogenesis monitored by CR binding (Orb2A PLD [1]) | interaction with Orb2A by ITC (full-length Orb2A) | formation of oligomers and fibers by TEM (Orb2A PLD [2]) | short-term memory (courtship suppression immediately after training) (Drosophila melanogaster) | long-term memory (courtship suppression after 24 hours) (Drosophila melanogaster) | effect on fly development (Drosophila melanogaster) | normal courtship behaviour (Drosophila melanogaster) | oligomerization and loss of far-UV CD signal due to aggregation and precipitation (Orb2A PLD [3]) | putative M events (SMFS incomplete recordings) (Orb2A PLD [4]) | structures formed per molecule (SMFS force peaks) (Orb2A PLD [4]) | formation of M conformers (SMFS) (Orb2A PLD [4]; overnight 4° C., reduced from 37.7%) [%] | Orb2A PLD amyloidogenesis monitored by turbidimetry (Orb2A PLD [5]) | effect on NM/M conformational transition (SMFS) (Orb2A PLD [4]; overnight 4° C.) | amyloidogenesis of polyQ tracks in Drosophila (polyQ tracks) | amyloidogenesis (conformational polymorphism, oligomerization, fibrillogenesis) (Sup35) | amyloidogenesis (conformational polymorphism, oligomerization, fibrillogenesis) (-synuclein) | β-conformational transition, oligomerization, fibrillogenesis, cytotoxicity and neurodegeneration of expanded polyQ proteins [6] | amyloidogenesis (Tau) |
| --- | --- | --- | --- | --- | --- | --- | --- | --- | --- | --- | --- | --- | --- | --- | --- | --- | --- | --- |
| CC[C@H](C)[C@H](NC(=O)CNC(=O)[C@@H]1CCCN1C(=O)[C@H](Cc1c[nH]c2ccccc12)NC(=O)[C@H](Cc1c[nH]c2ccccc12)NC(=O)[C@H](CCCCN)NC(=O)[C@H](Cc1c[nH]c2ccccc12)NC(C)=O)C(=O)N[C@@H](Cc1ccccc1)C(N)=O [QBP1-f, Ac-WKWWPGIF-NH2] (Ac-WKWWPGIF-NH2) | inhibited Orb2A PLD amyloidogenesis | physically interacts with Orb2A | dramatic reduction in the formation of both oligomers and fibers | does not interfere with short-term memory | loss of long-term memory | did not affect fly development | slightly diminished | suppressed the oligomerization processes and decreased the loss of signal due to aggregation and precipitation | fewer putative M events | fewer structures formed per molecule | 16.1 | inhibited Orb2A PLD amyloidogenesis |  |  |  |  |  |  |
| CC[C@H](C)[C@H](NC(=O)[C@@H]1CCCN1C(=O)[C@H](Cc1c[nH]c2ccccc12)NC(C)=O)C(=O)N[C@@H](Cc1c[nH]c2ccccc12)C(=O)N[C@@H](CCCCN)C(=O)NCC(=O)N[C@@H](Cc1c[nH]c2ccccc12)C(=O)N[C@@H](Cc1ccccc1)C(N)=O [SCR, Ac-WPIWKGWF-NH2] (Ac-WPIWKGWF-NH2) |  | marginal interaction | not | does not interfere with short-term memory | no effect | did not affect fly development | slightly diminished | not |  |  |  |  | no effect |  |  |  |  |  |
| QBP1: polyglutamine binding peptide 1, hydrophobic peptide, known inhibitor of amyloids including HttQ expansions (SNWKWWPGIFD; QBP1) |  |  |  |  |  |  |  |  |  |  |  |  |  | can inhibit amyloidogenesis | inhibits amyloidogenesis | inhibits amyloidogenesis | suppressing oligomerization, fibrillogenesis as well as associated cytotoxicity and neurodegeneration | not |
